Test results reported in patent publication US7977477B2, “Benzimidazole derivatives and their use as protein kinase inhibitors” (Astex Therapeutics, Limited, priority 2003, dated 2011).

Experiments:
CDK1/cyclinB = CDK1/cyclinB (Homo sapiens, UniProt P06493); experiment: CDK selectivity assay, CDK1; assay type: biochemical; settings: read-out: IC50 against CDK 1
Method: (§1) Compounds of the invention were tested for kinase inhibitory activity against a number of different kinases using the general protocol described in Example 129, but modified as set out below.
(§2) Kinases are diluted to a 10× working stock in 20 mM MOPS pH 7.0, 1 mM EDTA, 0.1% γ-mercaptoethanol, 0.01% Brij-35, 5% glycerol, 1 mg/ml BSA. One unit equals the incorporation of 1 nmol of phosphate per minute into 0.1 mg/ml histone H1, or CDK7 substrate peptide at […] with a final ATP concentration of 100 uM.
(§3) The substrate for all the CDK assays (except CDK7) is histone H1, diluted to 10× working stock in 20 mM MOPS pH 7.4 prior to use. The substrate for CDK7 is a specific peptide diluted to 10× working stock in deionised water.
(§4) Assay Procedure for CDK1/cyclinB, CDK2/cyclinA. CDK2/cyclinE, CDK3/cyclinE, CDK5/p35. CDK6/cyclinD3:
(§5) In a final reaction volume of 25 μl, the enzyme (5-10 mU) is incubated with 8 mM MOPS pH 7.0, 0.2 mM EDTA, 0.1 mg/ml histone H1, 10 mM MgAcetate and [γ-^33P-ATP] (specific activity approx 500 cpm/pmol, concentration as required). The reaction is initiated by the addition of Mg^2+ [γ-^33P-ATP]. After incubation for 40 minutes at room temperature the reaction is stopped by the addition of 5 μl of a 3% phosphoric acid solution. 10 ml of the reaction is spotted onto a P30 filter mat and washed 3 times for 5 minutes in 75 mM phosphoric acid and once in methanol prior to drying and counting.

CDK3/cyclinE = CDK3/cyclinE (Homo sapiens, UniProt Q00526); experiment: CDK selectivity assay, CDK3; assay type: biochemical; settings: read-out: IC50 against CDK 3
CDK3/cyclinE, sequence (Q00526 whole entry): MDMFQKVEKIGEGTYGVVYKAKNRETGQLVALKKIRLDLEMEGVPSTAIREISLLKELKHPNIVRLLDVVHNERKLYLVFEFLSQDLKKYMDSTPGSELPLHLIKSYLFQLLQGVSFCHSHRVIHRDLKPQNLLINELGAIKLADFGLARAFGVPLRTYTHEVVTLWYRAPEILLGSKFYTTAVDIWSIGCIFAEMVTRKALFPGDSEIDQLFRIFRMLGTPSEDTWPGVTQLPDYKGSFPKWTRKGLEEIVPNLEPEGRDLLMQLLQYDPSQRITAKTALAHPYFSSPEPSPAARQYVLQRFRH
CDK3/cyclinE, sequence (P24864 whole entry partner): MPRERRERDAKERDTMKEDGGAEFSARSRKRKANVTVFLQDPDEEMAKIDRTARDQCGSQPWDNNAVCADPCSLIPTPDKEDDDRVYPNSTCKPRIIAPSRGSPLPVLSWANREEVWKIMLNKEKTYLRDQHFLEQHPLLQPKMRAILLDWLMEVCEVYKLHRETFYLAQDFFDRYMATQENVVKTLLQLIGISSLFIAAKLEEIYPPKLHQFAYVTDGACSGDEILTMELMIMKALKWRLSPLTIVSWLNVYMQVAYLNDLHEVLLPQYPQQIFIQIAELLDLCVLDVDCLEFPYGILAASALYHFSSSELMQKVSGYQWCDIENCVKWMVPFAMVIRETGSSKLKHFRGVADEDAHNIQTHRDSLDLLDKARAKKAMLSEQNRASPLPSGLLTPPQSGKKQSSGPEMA
Method: as §1, §2, §3, §4, §5

CDK5/p35 = CDK5/p35 (Homo sapiens, UniProt Q00535); experiment: CDK selectivity assay, CDK5; assay type: biochemical; settings: read-out: IC50 against CDK 5
CDK5/p35, sequence (Q00535 whole entry): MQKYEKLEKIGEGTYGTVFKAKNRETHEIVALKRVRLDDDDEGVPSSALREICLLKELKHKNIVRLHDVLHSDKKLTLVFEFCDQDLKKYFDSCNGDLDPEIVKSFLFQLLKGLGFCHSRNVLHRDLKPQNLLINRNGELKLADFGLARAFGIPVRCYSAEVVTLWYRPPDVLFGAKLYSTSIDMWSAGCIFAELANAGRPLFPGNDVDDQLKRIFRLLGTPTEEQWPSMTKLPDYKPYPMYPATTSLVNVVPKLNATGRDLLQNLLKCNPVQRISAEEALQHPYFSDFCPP
CDK5/p35, sequence (Q15078 whole entry partner): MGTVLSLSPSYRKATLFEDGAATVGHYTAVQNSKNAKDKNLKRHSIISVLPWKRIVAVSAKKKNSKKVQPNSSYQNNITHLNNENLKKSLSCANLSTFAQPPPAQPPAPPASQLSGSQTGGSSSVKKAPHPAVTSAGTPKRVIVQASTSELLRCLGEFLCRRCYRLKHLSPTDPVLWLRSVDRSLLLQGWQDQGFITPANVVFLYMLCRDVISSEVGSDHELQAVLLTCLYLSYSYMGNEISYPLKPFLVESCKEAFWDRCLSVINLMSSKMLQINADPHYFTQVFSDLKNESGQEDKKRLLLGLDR
Method: as §1, §2, §3, §4, §5

CDK2/CyclinA = biological target: T1, CDK2/CyclinA (Homo sapiens, UniProt P24941); experiment: CDK2 kinase inhibitory activity (Example 306, Protocol A or B); assay type: biochemical; settings: for IC50: protocol of Example 306, read-out: IC50 (CDK inhibitory activity); for inhibition at 0.003 µM: read-out: % inhibition (CDK inhibitory activity)
T1 construct: purchased Upstate Biotechnology
Method: Compounds of the invention were tested for kinase inhibitory activity using either Protocol A or Protocol B.
1.7 μl of active CDK2/CyclinA (Upstate Biotechnology, 10 U/μl) is diluted in assay buffer (250 μl of 10× strength assay buffer (200 mM MOPS pH 7.2, 250 mM β-glycerophosphate, 50 mM EDTA, 150 mM MgCl2), 11.27 μl 10 mM ATP, 2.5 μl 1M DTT, 25 μl 100 mM sodium orthovanadate, 708.53 μl H2O), and 10 μl mixed with 10 μl of histone substrate mix (60 μl bovine histone H1 (Upstate Biotechnology, 5 mg/ml), 940 μl H2O, 35 μCi γ^33P-ATP) and added to 96 well plates along with 5 μl of various dilutions of the test compound in DMSO (up to 2.5%). The reaction is allowed to proceed for 5 hours before being stopped with an excess of ortho-phosphoric acid (30 μl at 2%).
(§6) γ^33P-ATP which remains unincorporated into the histone H1 is separated from phosphorylated histone H1 on a Millipore MAPH filter plate. The wells of the MAPH plate are wetted with 0.5% orthophosphoric acid, and then the results of the reaction are filtered with a Millipore vacuum filtration unit through the wells. Following filtration, the residue is washed twice with 200 μl of 0.5% orthophosphoric acid. Once the filters have dried, 25 μl of Microscint 20 scintillant is added, and then counted on a Packard Topcount for 30 seconds.
The % inhibition of the CDK2 activity is calculated and plotted in order to determine the concentration of test compound required to inhibit 50% of the CDK2 activity (IC50).
Activated CDK2/CyclinA (Brown et al, Nat. Cell Biol., 1, pp 438-443, 1999; Lowe, E. D., et al Biochemistry, 41, pp 15625-15634, 2002) is diluted to 125 pM in 2.5× strength assay buffer (50 mM MOPS pH 7.2, 62.5 mM O-glycerophosphate, 12.5 mM EDTA, 37.5 mM MgCl2, […], 2.5 mM DTT, 2.5 mM sodium orthovanadate, 0.25 mg/ml bovine serum albumin), and 10 fi mixed with 10 A1 of histone substrate mix (60 μl bovine histone H1 (Upstate Biotechnology, 5 mg/ml), 940 μl H2O, 35 μCi γ^33P-ATP) and added to 96 well plates along with 5 μl of various dilutions of the test compound in DMSO (up to 2.5%). The reaction is allowed to proceed for 2 to 4 hours before being stopped with an excess of ortho-phosphoric acid (5 μl at 2%).
as §6, with “20” for “25”

HCT-116 cell line = experiment: Anti-proliferative activity, inhibition of cell growth (Alamar Blue assay); assay type: cell-based; settings: Homo sapiens, 72 hours with compound
Method: The anti-proliferative activity of the compounds of the invention has been determined by measuring inhibition of cell growth in the HCT-116 cell line.
The anti-proliferative activities of compounds of the invention were determined by measuring the ability of the compounds to inhibition of cell growth in a number of cell lines. Inhibition of cell growth was measured using the Alamar Blue assay (Nociari, M. M, Shalev, A., Benias, P., Russo, C. Journal of Immunological Methods 1998, 213, 157-167). The method is based on the ability of viable cells to reduce resazurin to its fluorescent product resorufin. For each proliferation assay cells were plated onto 96 well plates and allowed to recover for 16 hours prior to the addition of inhibitor compounds for a further 72 hours. At the end of the incubation period 10% (v/v) Alamar Blue was added and incubated for a further 6 hours prior to determination of fluorescent product at […]. In the case of the non-proliferating cell assay cells were maintained at confluence for 96 hour prior to the addition of inhibitor compounds for a further 72 hours. The number of viable cells was determined by Alamar Blue assay as before. All cell lines were obtained from ECACC (European Collection of cell Cultures).

GSK3β (human) = GSK3β (human) (Homo sapiens, UniProt P49841); experiment: Inhibitory activity against glycogen synthase kinase-3 (GSK-3); assay type: biochemical; settings: read-out: IC50 against GSK30
GSK3β (human), sequence (P49841 whole entry): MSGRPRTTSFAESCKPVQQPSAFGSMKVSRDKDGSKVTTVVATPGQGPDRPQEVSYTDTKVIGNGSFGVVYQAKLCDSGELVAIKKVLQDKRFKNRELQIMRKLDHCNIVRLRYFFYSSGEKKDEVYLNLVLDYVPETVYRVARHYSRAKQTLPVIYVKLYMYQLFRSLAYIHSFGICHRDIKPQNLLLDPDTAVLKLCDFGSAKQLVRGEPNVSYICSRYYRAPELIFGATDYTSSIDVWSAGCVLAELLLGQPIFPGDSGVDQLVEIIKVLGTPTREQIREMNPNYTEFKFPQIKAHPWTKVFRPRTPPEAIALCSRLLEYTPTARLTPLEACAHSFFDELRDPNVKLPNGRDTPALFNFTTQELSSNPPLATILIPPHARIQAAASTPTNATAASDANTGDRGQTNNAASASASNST
Method: GSK3β (human) is diluted to a 10× working stock in 50 mM Tris pH 7.5, 0.1 mM EGTA, 0.1 mM sodium vanadate, 0.1% β-mercaptoethanol, 1 mg/ml BSA. One unit equals the incorporation of 1 nmol of phosphate per minute phospho-glycogen synthase peptide 2 per minute.
as §5, with “GSK3β” for “the enzyme”, “MOPS” for “MOPS pH”, “20 μM […](p)EDEEE (phospho GS2 peptide),” for “0.1 mg/ml histone H1,”, “Mg^2+[γ-^33P-ATP].” for “Mg^2+ [γ-^33P-ATP].”, “μl” for “ml”, “50” for “75”

CDK1/cyclinB, sequence (P06493 whole entry): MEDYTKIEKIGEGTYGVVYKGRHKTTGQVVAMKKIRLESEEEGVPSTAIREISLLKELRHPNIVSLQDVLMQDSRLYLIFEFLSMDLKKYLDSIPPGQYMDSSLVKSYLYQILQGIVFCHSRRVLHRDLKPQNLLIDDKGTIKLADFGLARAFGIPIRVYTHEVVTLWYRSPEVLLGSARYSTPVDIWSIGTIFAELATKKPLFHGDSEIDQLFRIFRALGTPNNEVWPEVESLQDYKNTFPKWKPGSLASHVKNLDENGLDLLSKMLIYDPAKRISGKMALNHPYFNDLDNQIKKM
CDK1/cyclinB, sequence (P14635 whole entry partner): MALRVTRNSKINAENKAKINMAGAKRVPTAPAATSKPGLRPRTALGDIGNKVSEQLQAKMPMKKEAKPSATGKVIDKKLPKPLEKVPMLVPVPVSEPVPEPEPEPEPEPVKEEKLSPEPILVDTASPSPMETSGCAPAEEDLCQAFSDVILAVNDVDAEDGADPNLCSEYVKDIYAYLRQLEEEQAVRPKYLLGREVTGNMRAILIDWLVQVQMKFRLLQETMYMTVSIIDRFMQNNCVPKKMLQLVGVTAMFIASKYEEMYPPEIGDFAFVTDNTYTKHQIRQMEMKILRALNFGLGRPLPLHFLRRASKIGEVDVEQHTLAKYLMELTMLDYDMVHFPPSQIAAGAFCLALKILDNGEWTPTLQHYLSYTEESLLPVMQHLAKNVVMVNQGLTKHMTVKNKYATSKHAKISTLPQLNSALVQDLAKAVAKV

IC50 (CDK1/cyclinB) [µM]	IC50 (CDK3/cyclinE) [µM]	IC50 (CDK5/p35) [µM]	SMILES	inhibition at 0.003 µM (CDK2/CyclinA) [%]	also measured
< 1	< 1	< 1	CN1CCN(Cc2cccc3[nH]c(-c4n[nH]cc4NC(=O)c4c(F)cccc4F)nc23)CC1 [Example 13, 2,6-Difluoro-N-[3-(N-methyl-piperazinyl-4-ylmethyl-1H-benzimidazol-2-yl)-1H-pyrazol-4-yl]-benzamide]	–	–
–	–	–	Cc1cc2nc(-c3n[nH]cc3NC(=O)c3c(F)cccc3F)[nH]c2cc1C [Example 73]	–	IC50 (CDK2/CyclinA): 0.0046 µM; IC50 (HCT-116 cell line): 0.49 µM
–	–	–	O=C(Nc1c[nH]nc1-c1nc2ccccc2[nH]1)c1c(Cl)cccc1Cl [Example 59]	67	–
< 1	< 1	< 1	COc1cc(F)c(C(=O)Nc2c[nH]nc2-c2nc3ccccc3[nH]2)c(F)c1 [Example 41]	–	–
< 1	< 1	< 1	CN1CCN(C(=O)c2ccc3[nH]c(-c4n[nH]cc4NC(=O)c4c(F)cccc4F)nc3c2)CC1 [Example 21, 2,6-Difluoro-N-{3-[5-(4-methyl-piperazine-1-carbonyl)-1H-benzimidazol-2-yl]-1H-pyrazol-4-yl}-benzamide]	–	–
–	–	–	Cc1ccc(C(=O)Nc2c[nH]nc2-c2nc3cc(C)c(C)cc3[nH]2)cc1 [Compound B, reference compound]	–	IC50 (CDK2/CyclinA): 3 µM; IC50 (HCT-116 cell line): 5.7 µM
< 1	< 1	< 1	O=C(Nc1c[nH]nc1-c1nc2c(CN3CCOCC3)cccc2[nH]1)c1c(F)cccc1F [Example 12, 2,6-Difluoro-N-[3-(4-morpholin-4-yl-methyl-1H-benzimidazol-2-yl)-1H-pyrazol-4-yl]-benzamide]	–	IC50 (GSK3β (human)): < 1 µM
< 1	< 1	< 1	O=C(Nc1c[nH]nc1-c1nc2ccccc2[nH]1)c1c(F)cccc1F [Example 6, N-[3-(1H-Benzimidazol-2-yl)-1H-pyrazol-4-yl]-2,6-difluoro-benzamide]	–	IC50 (CDK2/CyclinA): 0.0048 µM; IC50 (GSK3β (human)): < 1 µM
–	–	–	O=C(Nc1c[nH]nc1-c1nc2ccccc2[nH]1)c1c(F)cccc1Cl [Example 43]	52	–
–	–	–	O=C(Nc1c[nH]nc1-c1nc2ccccc2[nH]1)c1c(F)cc(F)cc1F [Example 56]	58	–
–	–	–	COc1cccc(F)c1C(=O)Nc1c[nH]nc1-c1nc2ccccc2[nH]1 [Example 44]	57	–
–	–	–	Cc1cccc(Cl)c1C(=O)Nc1c[nH]nc1-c1nc2ccccc2[nH]1 [Example 57]	41	–
–	–	–	O=C(Nc1c[nH]nc1-c1nc2ccccc2[nH]1)c1ccccc1 [Compound A, reference compound]	–	IC50 (CDK2/CyclinA): 0.0967 µM
< 1	< 1	< 1	CC(C)(C)NCc1cccc2[nH]c(-c3n[nH]cc3NC(=O)c3c(F)cccc3F)nc12 [Example 14, N-{3-[4-(tert-Butylamino-methyl)-1H-benzimidazol-2-yl]-1H-pyrazol-4-yl}-2,6-difluoro-benzamide]	–	–
